According to patent US5091539A, “Azolyl cycloalkanol derivatives and agricultural fungicides” (Shionogi & Co., Ltd., priority 1984, dated 1992):
≈ marks a conversion by molar mass, not a printed value.

Experiments:
Botrytis cinerea = assay: Control test of Botrytis rot (gray mold) of cucumber; assay type: in vivo
Sclerotinia sclerotiorum = assay: Control test to Sclerotinia rot of cucumber; assay type: in vivo
Source text: (1) This test was practised in the same manner as in the above test, control test of Botrytis rot (gray mold) of cucumber, except for using the mycelium of Sclerotinia sclerotiorum as inoculm. The same as in test 2.

Sphaerotheca fuliginea [1] = assay: Control test to powdery mildew of cucumber (foliar and soil treatment); assay type: in vivo; conditions: index 0-10
Puccinia coronata = assay: Control test of crown rust of oat; assay type: in vivo
Procedure: (1) Young oats (Cultivar: Pc38) grown in pots in a greenhouse were (i) sprayed with 10 ml each of solution of the test compounds at a prescribed concentration and after air-drying, they were inoculated with 15 mg of uredospores of Puccinia coronata per 20 pots (protective spraying) or (ii) sprayed with the test solution 3 days after inoculation of uredospores. After each plant was kept at 20°-25° C. in a greenhouse for 2 weeks, number of uredia was counted on the first leaf.

Sphaerotheca fuliginea [2] = assay: Control test to powdery mildew of cucumber by vapor (filter paper disks); assay type: in vivo; on Protective Effect by Vapor: key: +: an inhibition zone was observed around the plate; ±: the inhibition zone has nearly the same diameter (8 mm) as that of plate; -: there is no inhibition zone
Outline: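 Cucumber (Matsukaze) first leaves inoculated with Sphaerotheca fuliginea; after 2 days, filter paper disks with 80 μl test solution at 31.3, 7.8, 2.0 or 0.5 ppm placed on 15 mm cover plates over leaves for 3 days. Inhibition zone around plate scored +, ± or - 14 days post-inoculation.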

Alternaria kikuchiana = assay: Anti-fungal activity in vitro; assay type: cell-based; conditions: 48 h, GY medium, 28° C., 2 days, spore suspension
Procedure: (§1) (1) Each test compound was diluted by two-fold dilution with GY medium (2% glucose and 0.4% yeast extract) containing 0.01% Tween 80 (trademark). Every diluted solution was inoculated with spore suspension (10^5-5 spores/ml) of Alternaria kikuchiana or a hyphae disk with agar (4 mm in diameter) of other fungi and incubated at 28° C. for 2 days.

Cladosporium herbarum = assay: Anti-fungal activity in vitro; assay type: cell-based; conditions: 48 h, GY medium, 28° C., 2 days
Procedure: as §1

Cochiobolus sativus = assay: Anti-fungal activity in vitro; assay type: cell-based; conditions: 48 h; GY medium, 28° C., 2 days
Procedure: as §1

Corticium rolfsii = assay: Anti-fungal activity in vitro; assay type: cell-based; conditions: Agroathelia rolfsii, 48 h; GY medium, 28° C., 2 days
Procedure: as §1

Diaporthe citri = assay: Anti-fungal activity in vitro; assay type: cell-based; conditions: 48 h, GY medium, 28° C., 2 days
Procedure: as §1

Monilinia fructicola = assay: Anti-fungal activity in vitro; assay type: cell-based; conditions: 48 h, GY medium, 28° C., 2 days
Procedure: as §1

Pyrenophora graminea = assay: Anti-fungal activity in vitro; assay type: cell-based; conditions: 48 h, GY medium, 28° C., 2 days
Procedure: as §1

Ustilago nuda = assay: Anti-fungal activity in vitro; assay type: cell-based; conditions: 48 h, GY medium, 28° C., 2 days
Procedure: as §1

[3] = tested on: powdery mildew of cucumber and Borytis rot (gray mold) of cucumber; assay: Comparative test of cis- and trans-isomers; assay type: in vivo; conditions: cis isomer vs trans isomer, about
Source text: Each cis- and trans-isomers of 1-(4-chlorophenyl)-2-(1,2,4-triazol-1-yl)cyclohexanol (Compound 22 and the trans-isomer)) and 1-(4-fluorophenyl)-2-(1,2,4-triazol-1-yl)cyclohexanol (Compound 28 and the trans-isomer) are subjected to control test to powdery mildew of cucumber and to Borytis rot (gray mold) of cucumber.
(1) Test methods and evaluation are the same as those in Tests 2, 4 and 6.

For O[C@@]1(c2ccc(Cl)cc2)CCCC[C@H]1n1cncn1 (relative stereo) [Compound 22, cis-1-(4-chlorophenyl)-2-(1,2,4-triazol-1-yl)cyclohexanol], the “Percent Disease Control, Curative Spraying” value (Botrytis cinerea; Table 2, 31.3 ppm) was 46%, the “Percent Disease Control, Protective Spraying” value (Botrytis cinerea; Table 2, 31.3 ppm) was 100% and the “Percent Disease Control, Curative Spraying” value (Botrytis cinerea; Table 2, 125 ppm) was 89%. For the same compound, the “Percent Disease Control, Protective Spraying” value (Botrytis cinerea; Table 2, 125 ppm) was 100%, the “Gray Mold, Percent Disease Control, Curative Spraying” value (Botrytis cinerea; Table 9, 7.8 ppm) was 20% and the “Gray Mold, Percent Disease Control, Protective Spraying” value (Botrytis cinerea; Table 9, 7.8 ppm) was 35%. For the same compound, the “Gray Mold, Percent Disease Control, Curative Spraying” value (Botrytis cinerea; Table 9, 31.3 ppm) was 88%, the “Gray Mold, Percent Disease Control, Protective Spraying” value (Botrytis cinerea; Table 9, 31.3 ppm) was 62% and the “Gray Mold, Percent Disease Control, Curative Spraying” value (Botrytis cinerea; Table 9, 125 ppm) was 82%. For the same compound, the “Gray Mold, Percent Disease Control, Protective Spraying” value (Botrytis cinerea; Table 9, 125 ppm) was 78%, the “Percent Disease Control, Curative Spraying” value (Sclerotinia sclerotiorum; 31.3 ppm) was 93% and the “Percent Disease Control, Protective Spraying” value (Sclerotinia sclerotiorum; 31.3 ppm) was 67%. For the same compound, the “Percent Disease Control, Curative Spraying” value (Sclerotinia sclerotiorum; 125 ppm) was 95%, the “Percent Disease Control, Protective Spraying” value (Sclerotinia sclerotiorum; 125 ppm) was 100% and the “Powdery mildew, Foliar Treatment, Curative Effect” value (shortened to “Powdery mildew … Curative Effect”) (Sphaerotheca fuliginea [1]; Table 9, 0.03 ppm) was 9. For the same compound, the “Powdery mildew, Foliar Treatment, Protective Effect” value (Sphaerotheca fuliginea [1]; Table 9, 0.03 ppm) was 0, the “Powdery mildew … Curative Effect” value (Sphaerotheca fuliginea [1]; Table 9, 0.12 ppm) was 10 and the “Powdery mildew, Foliar Treatment, Protective Effect” value (Sphaerotheca fuliginea [1]; Table 9, 0.12 ppm) was 9. The “Powdery mildew … Curative Effect” value (Sphaerotheca fuliginea [1]; Table 9, 0.5 ppm) was 10, the “Powdery mildew, Foliar Treatment, Protective Effect” value (Sphaerotheca fuliginea [1]; Table 9, 0.5 ppm) was 10 and the “Powdery mildew, Soil Treatment, Protective Effect” value (from here on “Powdery mildew, Soil Treatment”) (Sphaerotheca fuliginea [1]; Table 9, 0.5 ppm) was 0. The “Powdery mildew … Curative Effect” value (Sphaerotheca fuliginea [1]; Table 9, 2.0 ppm) was 10, the “Powdery mildew, Foliar Treatment, Protective Effect” value (Sphaerotheca fuliginea [1]; Table 9, 2.0 ppm) was 10 and the “Powdery mildew, Soil Treatment” value (Sphaerotheca fuliginea [1]; Table 9, 2.0 ppm) was 10. For the same compound, the “Powdery mildew, Soil Treatment” value (Sphaerotheca fuliginea [1]; Table 9, 7.8 ppm) was 10, the “Powdery mildew, Soil Treatment” value (Sphaerotheca fuliginea [1]; Table 9, 31.3 ppm) was 10 and the “Foliar Treatment, Curative Effect” value (Sphaerotheca fuliginea [1]; second Table 4, 0.5 ppm) was 10. For the same compound, the “Foliar Treatment, Protective Effect” value (Sphaerotheca fuliginea [1]; second Table 4, 0.5 ppm) was 5 (Disease sign is observed on the leaf in about 30%.), the “Soil Treatment, Protective Effect” value (Sphaerotheca fuliginea [1]; second Table 4, 0.5 ppm) was 0 and the “Foliar Treatment, Curative Effect” value (Sphaerotheca fuliginea [1]; second Table 4, 2.0 ppm) was 10. For the same compound, the “Foliar Treatment, Protective Effect” value (Sphaerotheca fuliginea [1]; second Table 4, 2.0 ppm) was 10, the “Soil Treatment, Protective Effect” value (Sphaerotheca fuliginea [1]; second Table 4, 2.0 ppm) was 5 (Disease sign is observed on the leaf in about 30%.) and the “Foliar Treatment, Curative Effect” value (Sphaerotheca fuliginea [1]; second Table 4, 7.8 ppm) was 10. The “Foliar Treatment, Protective Effect” value (Sphaerotheca fuliginea [1]; second Table 4, 7.8 ppm) was 10, the “Soil Treatment, Protective Effect” value (Sphaerotheca fuliginea [1]; second Table 4, 7.8 ppm) was 10 and the “Foliar Treatment, Curative Effect” value (Sphaerotheca fuliginea [1]; second Table 4, 31.3 ppm) was 10. The “Foliar Treatment, Protective Effect” value (Sphaerotheca fuliginea [1]; second Table 4, 31.3 ppm) was 10, the “Soil Treatment, Protective Effect” value (Sphaerotheca fuliginea [1]; second Table 4, 31.3 ppm) was 10 and the “Percent Disease Control, Curative Spraying” value (Puccinia coronata; 12.5 ppm) was 64%. For the same compound, the “Percent Disease Control, Protective Spraying” value (Puccinia coronata; 12.5 ppm) was 100%, the “Percent Disease Control, Curative Spraying” value (Puccinia coronata; 25 ppm) was 88% and the “Percent Disease Control, Protective Spraying” value (Puccinia coronata; 25 ppm) was 100%. For the same compound, the “Percent Disease Control, Curative Spraying” value (Puccinia coronata; 50 ppm) was 100%, the “Percent Disease Control, Protective Spraying” value (Puccinia coronata; 50 ppm) was 100% and the “Protective Effect by Vapor” value (Sphaerotheca fuliginea [2]; Table 6, 0.5 ppm) was “-”. The “Protective Effect by Vapor” value (Sphaerotheca fuliginea [2]; Table 6, 2.0 ppm) was “-”, the “Protective Effect by Vapor” value (Sphaerotheca fuliginea [2]; Table 6, 7.8 ppm) was “+” and the “Protective Effect by Vapor” value (Sphaerotheca fuliginea [2]; Table 6, 31.3 ppm) was “+”. The “Powdery mildew, Vapor Effect” value (Sphaerotheca fuliginea [2]; Table 9, 2.0 ppm) was “-”, the “Powdery mildew, Vapor Effect” value (Sphaerotheca fuliginea [2]; Table 9, 7.8 ppm) was “±” and the “Powdery mildew, Vapor Effect” value (Sphaerotheca fuliginea [2]; Table 9, 31.3 ppm) was “+”. The MIC (Alternaria kikuchiana) was 50 µg/mL (≈ 180 µM), the MIC (Cladosporium herbarum) was 6.25 µg/mL (≈ 22.5 µM) and the MIC (Cochiobolus sativus) was 6.25 µg/mL (≈ 22.5 µM). The MIC (Corticium rolfsii) was over 50 µg/mL, the MIC (Diaporthe citri) was 12.5 µg/mL (≈ 45 µM) and the MIC (Monilinia fructicola) was 0.78 µg/mL (≈ 2.81 µM). For the same compound, the MIC (Pyrenophora graminea) was 12.5 µg/mL (≈ 45 µM), the MIC (Ustilago nuda) was 12.5 µg/mL (≈ 45 µM) and the “times more effective than the corresponding trans isomer” value [3] was 4-16 times.
